This note sets out measurements from PubChem BioAssay (NCI).

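In this assay, cells in 96-well plates receive the compound at five concentrations for 48 hours. Endpoints are linearly interpolated between the surrounding concentrations. TGI is the concentration that stops growth completely.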 Some results are limits rather than exact numbers.

Holding throughout (assay): DTP human tumour cell line panel, 48 h
The test system of test [1] is MDA-N.
Test [2] has as its system CCRF-CEM leukemia.
Test [3] has as its system CAKI-1 renal.
For test [4], the system named is SF-539 CNS.
The test system of test [5] is IGROV1 ovarian.
The test system of test [6] is M14 melanoma.
The test system of test [7] is MDA-MB-231 breast.
Test [8] concerns OVCAR-3 ovarian.
Test [9] concerns HCC-2998 colon.
Test [10] relates to BT-549 breast.
Test [11] deals with UO-31 renal.
Test [12] relates to MOLT-4 leukemia.

The term TGI denotes the concentration at which net growth stops. Low values mean greater sensitivity of the cells, high ones lower sensitivity of the cells. For `O=C(/C=C/c1ccc(OCc2ccccc2)cc1)NCc1ccc(C(=O)NCCc2ccccc2)cc1`, the TGI in test [1], in test [2], in test [3], in [4], in test [5] and in test [6] was > 100 µM throughout. In addition, the TGI in test [7], in test [8], in [9], in test [10] and in [11] was > 100 µM throughout.
In the case of `CSc1c(C(C)=O)c(O)n(-c2ccc(C)cc2)c(=O)c1C#N`, the total growth inhibition concentration (TGI) in [2], in test [3], in test [4], in test [5], in [6] and in test [7] was > 100 µM each time. The TGI in test [8], in test [9], in test [10], in test [11] and in test [12] was > 100 µM each time.
As to `C[N+]1(C)CCCC(C#N)(c2ccccc2)CC1` (stereo unspecified), the TGI in test [1], in [2], in test [3], in test [5], in test [6] and in test [9] was > 100 µM throughout. For the same compound, the TGI in [11] and in test [12] was > 100 µM each time.
With `Cc1ccc(C)c2c1C1CCCCC3(OCCCO3)C21O` (stereo unspecified), the TGI in test [2], in test [3], in test [4], in [5], in test [6] and in [8] was > 100 µM throughout. Besides, the TGI in [9], in [11] and in test [12] was > 100 µM each time.
Consider `CCOC(=O)N1c2ccccc2C(C)=CC(C)C1C` (stereo unspecified), for which the concentration for total growth inhibition (TGI) in test [1] was 27.3 µM; in test [2] it was > 100 µM; in test [3], 74.3 µM; in [4] it was 42.7 µM; in test [5], > 100 µM; in [6], 80 µM. The TGI is 78.4 µM in test [7]; 51.1 µM in [8]; > 100 µM in [9]; > 100 µM in [11]; > 100 µM in test [12].
`CC1(C)N=C(C(N)=O)c2[nH]cnc2N1`: the concentration for total growth inhibition (TGI) in test [1], in [2], in test [3], in [4], in test [5] and in test [6] was > 100 µM in each case. Besides, the TGI in [7], in test [8] and in test [9] was > 100 µM each time.
As for `CO[C@@]12C[C@H](CNC(=O)c3ccc[nH]3)O[C@@H]1NC(=O)N2`, the TGI in test [3], in test [4], in [5], in test [6], in test [7] and in [8] was > 100 µM each time. The TGI in test [9], in test [10], in [11] and in test [12] was > 100 µM in each case.
Consider `CN(C)C(=O)C(F)(F)C(c1ccccc1)C1C(=O)N(C)C(=O)N(C)C1=O` (stereo unspecified), for which the concentration for total growth inhibition (TGI) in test [2], in [3], in test [6], in [7], in test [8] and in test [9] was > 100 µM throughout. Besides, the concentration for total growth inhibition (TGI) in test [10], in test [11] and in test [12] was > 100 µM each time.
Consider `CCOC(=O)C1=C(O)CC(=O)N=C1N1CCCC1`, for which the TGI in test [1], in test [2], in test [3], in [4], in test [5] and in [6] was > 100 µM each time. In addition, the concentration for total growth inhibition (TGI) in test [7], in test [8], in test [9], in [11] and in test [12] was > 100 µM in each case.
Turning to `CC1CC(=O)N(N(C)C)C2(C#N)C(=O)N=C(N)C12C#N` (stereo unspecified), the TGI in test [1] is > 100 µM; in test [2], 67.5 µM; in test [3] it was 48.3 µM; in [4], > 100 µM; in [5], > 100 µM; in [6], > 100 µM. Moreover, the TGI in test [7], in test [9], in test [11] and in test [12] was > 100 µM in each case.
As for `CNC(=S)N/N=C/C(C)=N/NC(=S)NC`, the total growth inhibition concentration (TGI) in test [4], in test [6], in test [8], in [9], in test [11] and in test [12] was > 100 µM each time.
As to `COC(=O)c1ccccc1CC1Cc2c(C)ccc(C)c2C1=O` (stereo unspecified), the concentration for total growth inhibition (TGI) was 52.8 µM in test [2]; > 100 µM in [3]; > 100 µM in [4]; > 100 µM in [5]; > 100 µM in test [6]; > 100 µM in test [7]. Moreover, the TGI in [8] was > 100 µM; in test [9], > 100 µM; in test [10], > 100 µM; in test [11] it was > 100 µM; in test [12], 45.6 µM.
In the case of `Cc1ccc(/C=c2\cc3oc(=O)c4cccc(c4-3)c2=O)cc1`, the TGI in test [2] is 68.2 µM; in test [3], > 100 µM; in [4], > 100 µM; in test [5], > 100 µM; in test [6] it was > 100 µM; in test [7], > 100 µM. Further, the concentration for total growth inhibition (TGI) in test [8], in test [9] and in test [11] was > 100 µM throughout.
With `CCOC(=O)Cc1c(C(=O)OCC)[n+](=O)c2cc(Cl)c(Cl)cc2n1[O-]`, the TGI in test [1] came to 11.9 µM; in test [2], 6.29 µM; in [3] it was 11.1 µM; in test [4] it was 5.44 µM; in test [5] it was 2.35 µM; in test [6], 5.98 µM. The total growth inhibition concentration (TGI) in test [7] was 7.02 µM; in [8] it was 5.04 µM; in test [9], 5.1 µM; in test [10], 6.53 µM; in test [11] it was 3.36 µM.
